Some test systems named below: ACHN renal; SF-539 CNS; OVCAR-3 ovarian; HOP-92 NSCLC; RXF 393 renal; UACC-257 melanoma; TK-10 renal; CCRF-CEM leukemia; BT-549 breast; PC-3 prostate.
Common to all, as to experiment: growth of human tumour cells (NCI), 48 h

Values joined by “and” are separate entries in the source; they are usually repeats but may differ in a detail not shown here. Equal values may be shown once.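 These data come from cells grown in 96-well plates and exposed to compound for 48 hours at five concentrations. Abbreviation: GI50, concentration required for 50% inhibition of growth. TGI marks complete inhibition of growth.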

This note sets out measurements from PubChem BioAssay (NCI).

As to `Nc1c(O)cc(N=C2C(=O)C=CC=C2C(=O)O)c(O)c1C(=O)O`, the TGI in the assay with ACHN renal is over 100 µM; in the assay on SF-539 CNS, over 100 µM; in the assay with OVCAR-3 ovarian, over 100 µM; in the assay on HOP-92 NSCLC, over 100 µM; in the assay on RXF 393 renal, over 31.6 µM; in the assay with UACC-257 melanoma, over 100 µM. Further, in the assay on TK-10 renal, the TGI was over 100 µM.
With `Cc1cc(-c2ccccc2)nc(Nc2nc3ccccc3o2)n1`, the TGI in the assay with ACHN renal, in the assay with SF-539 CNS, in the assay with OVCAR-3 ovarian, with HOP-92 NSCLC, in the assay on UACC-257 melanoma and in the assay on CCRF-CEM leukemia was over 100 µM each time. The compound further had a TGI with TK-10 renal of over 100 µM.
`COC(=O)C1=C(c2ccc(OC)c(OC)c2)OC(c2cc(OC)c(OC)c(OC)c2)C1` (stereo unspecified): the TGI in the assay on ACHN renal was over 100 µM; in the assay with SF-539 CNS it was over 100 µM; in the assay on OVCAR-3 ovarian, over 100 µM; in the assay with HOP-92 NSCLC it was 65.2 µM; in the assay on RXF 393 renal, 66.9 µM; in the assay on UACC-257 melanoma, over 100 µM. The TGI in the assay with CCRF-CEM leukemia and with TK-10 renal was over 100 µM in each case.
Regarding `CN=C(NC(=S)N(C)C)N(C)C`, the TGI in the assay with ACHN renal, in the assay with SF-539 CNS, in the assay with HOP-92 NSCLC, in the assay on RXF 393 renal, with UACC-257 melanoma and in the assay on CCRF-CEM leukemia was over 100 µM in each case. Further, in the assay with TK-10 renal, the TGI is over 100 µM.
For `Cc1cccc(C(C)C)c1N1C(=O)C(=O)C(c2nc3ccccc3o2)C(=O)C1=O`, the TGI in the assay with ACHN renal, with SF-539 CNS, in the assay on OVCAR-3 ovarian, in the assay with HOP-92 NSCLC, with RXF 393 renal and in the assay on UACC-257 melanoma was over 100 µM each time. Besides, the TGI in the assay with CCRF-CEM leukemia is 63 µM; in the assay with TK-10 renal, over 100 µM.
`N#CC1CCCCOCCOCCOCCOCCOCCCCCC1=O` (stereo unspecified): the TGI with ACHN renal, in the assay on OVCAR-3 ovarian, in the assay with RXF 393 renal, in the assay with UACC-257 melanoma, in the assay on CCRF-CEM leukemia and in the assay on TK-10 renal was over 100 µM throughout.
On to `CCCCC(C)C(OC(=O)CC(CC(=O)O)C(=O)O)C(CC(C)CC(O)CCCCC(O)CC(O)C(C)N)OC(=O)CC(CC(=O)O)C(=O)O` (stereo unspecified), for which the TGI in the assay on ACHN renal, in the assay on SF-539 CNS, with OVCAR-3 ovarian, in the assay with HOP-92 NSCLC, with RXF 393 renal and in the assay on UACC-257 melanoma was over 100 µM in each case. The TGI with CCRF-CEM leukemia and in the assay with TK-10 renal was over 100 µM throughout.
In the case of `C#CC[N+](C)(CC#C)CC#C`, the TGI in the assay on ACHN renal, in the assay with OVCAR-3 ovarian, in the assay on HOP-92 NSCLC, with RXF 393 renal, with UACC-257 melanoma and with CCRF-CEM leukemia was over 100 µM throughout. For the same compound, the TGI with TK-10 renal is over 100 µM.
For the compound `COc1cc(NS(C)(=O)=O)ccc1Nc1c2ccccc2nc2ccccc12`, the GI50 with ACHN renal was 311 nM and 194 nM and 183 nM; in the assay with SF-539 CNS, 531 nM and 360 nM and 410 nM; in the assay with OVCAR-3 ovarian, 4 µM; in the assay with HOP-92 NSCLC, 2590 nM and 604 nM; with RXF 393 renal it was 3370 nM and 2180 nM and 2230 nM; in the assay with UACC-257 melanoma, 11.8 µM and 5.93 µM. Also, the GI50 is 91.8 nM and 182 nM and 105 nM in the assay on CCRF-CEM leukemia; 3.14 µM [middle of 4 runs] in the assay on BT-549 breast; 4720 nM and 854 nM and 911 nM in the assay with TK-10 renal. Besides, the TGI with SF-539 CNS was 2.27 µM [middle of 7 runs]; in the assay on OVCAR-3 ovarian, 7.66 µM [middle of 8 runs].
Consider `Cc1ccc(/C=C2\CN(C(=O)C(Cl)Cl)C/C(=C\c3ccc(C)cc3)C2=O)cc1`, for which the GI50 with ACHN renal is 244 nM; in the assay on SF-539 CNS it was 227 nM; in the assay on OVCAR-3 ovarian, 0.209 µM; in the assay with PC-3 prostate, 0.209 µM; with HOP-92 NSCLC it was 1470 nM; with RXF 393 renal, 216 nM. Moreover, the GI50 was 0.346 µM in the assay on UACC-257 melanoma, 110 nM with CCRF-CEM leukemia and 570 nM with TK-10 renal. For the same compound, the TGI in the assay with ACHN renal is 0.62 µM; in the assay on SF-539 CNS, 0.567 µM; in the assay with OVCAR-3 ovarian, 0.483 µM; in the assay on PC-3 prostate, 0.672 µM; with HOP-92 NSCLC, 3.95 µM; in the assay on RXF 393 renal it was 0.507 µM. For the same compound, the TGI is 3.16 µM in the assay on UACC-257 melanoma, over 100 µM with CCRF-CEM leukemia and 6.04 µM with TK-10 renal.
Regarding `O=C(CC1(O)C(=O)Nc2ccc(Br)cc21)c1ccc(Cl)cc1Cl` (stereo unspecified), the TGI was over 100 µM in the assay on ACHN renal; over 100 µM in the assay on SF-539 CNS; over 100 µM with OVCAR-3 ovarian; over 100 µM with RXF 393 renal; over 100 µM in the assay with UACC-257 melanoma; 57.1 µM with CCRF-CEM leukemia. Moreover, the TGI with TK-10 renal was over 100 µM.
As for `O=[N+]([O-])c1ccc(Cl)c(C2CC(c3cccc4ccccc34)=Nc3ccccc3S2)c1` (stereo unspecified), the TGI in the assay with ACHN renal is over 100 µM; with SF-539 CNS, 49.3 µM; with OVCAR-3 ovarian, 51.2 µM; in the assay on HOP-92 NSCLC, 49.8 µM; in the assay on RXF 393 renal, 21.7 µM; with UACC-257 melanoma, over 100 µM. The values for the TGI with CCRF-CEM leukemia and in the assay on TK-10 renal were over 64.7 µM and over 100 µM, respectively.
Take `O=C(O)C1CCCCC1c1c2ccc(=O)c(O)c-2oc2c(O)c(O)ccc12` (stereo unspecified): the TGI with ACHN renal was 60.1 µM; in the assay on OVCAR-3 ovarian, over 100 µM; in the assay with PC-3 prostate it was over 100 µM; in the assay with HOP-92 NSCLC, over 100 µM; in the assay with RXF 393 renal it was over 100 µM; with UACC-257 melanoma it was over 100 µM. Further, the TGI was 3.11 µM in the assay with CCRF-CEM leukemia and over 100 µM in the assay on TK-10 renal.
`S=c1nc(COc2ccc(Cl)cc2Cl)[nH][nH]1`: the TGI in the assay on ACHN renal, in the assay on SF-539 CNS, in the assay on OVCAR-3 ovarian, in the assay on HOP-92 NSCLC, in the assay on RXF 393 renal and in the assay on UACC-257 melanoma was over 100 µM throughout. The TGI in the assay on CCRF-CEM leukemia and in the assay on TK-10 renal was over 100 µM throughout.
As to `Cc1ccc(-c2c3c(nn2-c2ccc(S(N)(=O)=O)cc2)-c2ccccc2C3)cc1`, the GI50 in the assay on ACHN renal is 19800 nM; with SF-539 CNS, 18300 nM; with OVCAR-3 ovarian, 15.6 µM; with PC-3 prostate, 16.1 µM; with HOP-92 NSCLC, 13900 nM; in the assay with RXF 393 renal it was 17000 nM. The GI50 in the assay on UACC-257 melanoma was 21.9 µM; in the assay with CCRF-CEM leukemia it was 3560 nM; with TK-10 renal, 19200 nM. Moreover, the TGI came out at 35.8 µM in the assay on ACHN renal; 33.3 µM in the assay with SF-539 CNS; 30 µM with OVCAR-3 ovarian; 42.6 µM in the assay with PC-3 prostate; 30.6 µM with HOP-92 NSCLC; 43.7 µM in the assay with RXF 393 renal. For the same compound, the TGI is 40.3 µM in the assay with UACC-257 melanoma, over 100 µM in the assay on CCRF-CEM leukemia and 38.1 µM with TK-10 renal.
